The source of these data is ChEMBL document CHEMBL3045099, “Action mechanism of isoxazoline-type herbicides” (J Pestic Sci, 2012).

Molecules are shown by their SMILES.

For assay [1], the system named is Echinochloa crus-galli. As to the kind of experiment: Ratio of I50 for very long-chain fatty acid elongase in Echinochloa crus-galli (barnyard grass) to EC50 for shoot elongation inhibition in Echinochloa crus-galli (barnyard grass).
For assay [2], the system named is Echinochloa crus-galli. Kind of assay: Inhibition of shoot elongation in Echinochloa crus-galli (barnyard grass). It is filed as functional, organism-based.
A short description of assay [3]: Inhibition of Very long-chain fatty acid elongase in Echinochloa crus-galli (barnyard grass). Particulars: read-out: I50.

For the compound `CCOc1cc(Cl)c(CS(=O)(=O)C2=NOC(C)(C)C2)cc1Cl` [FENOXASULFONE], the Ratio in the assay with Echinochloa crus-galli [1] stood at 10. In addition, the response in the assay on Echinochloa crus-galli [2] was half-maximal at 30 nM (EC50). Further, the IC50 in assay [3] was 300 nM.

For the compound `Cn1nc(C(F)(F)F)c(CS(=O)(=O)C2=NOC(C)(C)C2)c1OC(F)F` [PYROXASULFONE], in the assay with Echinochloa crus-galli [1], the Ratio was 10. The EC50 (usually the concentration needed to bring the measured effect to its halfway point) with Echinochloa crus-galli [2] came out at 30 nM. Moreover, in assay [3], the IC50 worked out at 300 nM.
